Test results taken from US20120035247A1, “RNA Interference Mediated Inhibition of Signal Transducer and Activator of Transcription 6 (STAT6) Gene Expression Using Short Interfering Nucleic Acid (siNA)” (Merck Sharp & Dohme Corp., priority 2009, published 2012).
[invAb] = inverted abasic unit; m = 2'-O-methyl; r = 2'-OH (RNA); f = 2'-fluoro

System: STAT6 mRNA
Assay: STAT6 siNA screen and dose response in human A549 cells, STAT6 mRNA by quantitative RT-PCR (Taqman)
Assay type: cell-based
Details: for % KD STAT6 mRNA 10 nM / IC50: Table 4, human A549 cells; for % KD STAT6 mRNA 10 nM / IC50 / % KD STAT6: mean ± S.D.; for % KD STAT6 10 nM: Table 5, A549 cells, three experiments, mean ± standard deviation; for % KD STAT6: human A549 cells, 10 nM siNA, 24 hrs, normalized to GAPDH and non-targeting control, n = 3
How it was run: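 A549 cells were transfected with siNA–RNAiMax complexes at a final 10 nM siNA and incubated 24 h without a medium change. STAT6 mRNA was measured by TaqMan qRT-PCR on cell lysates. Knock-down was calculated by the comparative Ct (ΔΔCt) method against the non-targeting control siNA, with relative expression taken as 2^−ΔΔCt.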

## 29997-DC: STAT6 siNA duplex; sense SEQ ID NO: 58, antisense SEQ ID NO: 59; target CUACCAUGGUGCCUUCUUA, site 2262 (sense CUACCAUGGUGCCUUCUUATT; antisense UAAGAAGGCACCAUGGUAGUU; sense: DNA at AGT, 2'-fluoro at CU, [invAb] at 5' end, 3' end, backbone not given here; antisense: sugars from the 5' end rrrmmmmmfmffmfmmfmmmm, backbone not given here) [STAT6 siNA duplex; target CUACCAUGGUGCCUUCUUA, site 2262]
  % KD STAT6 mRNA 10 nM: 68.1 ± 6.2%
  IC50: 18.1 ± 8.3 pM
  % KD STAT6 10 nM: 68.1 ± 6.2%
  % KD STAT6: 68.1 ± 6.2%

## 29990-DC: STAT6 siNA duplex; sense SEQ ID NO: 44, antisense SEQ ID NO: 45; target GUGAAAGCCUGGUGGACAU, site 954 (sense GUGAAAGCCUGGUGGACAUTT; antisense AUGUCCACCAGGCUUUCACUU; sense: DNA at AGT, 2'-fluoro at CU, [invAb] at 5' end, 3' end, backbone not given here; antisense: sugars from the 5' end rrrfffmffmmmfffffmfmm, backbone not given here) [STAT6 siNA duplex; target GUGAAAGCCUGGUGGACAU, site 954]
  % KD STAT6 mRNA 10 nM: 71.7 ± 1.8%
  IC50: 23 ± 8.7 pM
  % KD STAT6 10 nM: 71.7 ± 1.8%
  % KD STAT6: 71.7 ± 1.8%

## 30008-DC: STAT6 siNA duplex; sense SEQ ID NO: 80, antisense SEQ ID NO: 81; target CUGCUCUGCUCAGAUGUGA, site 2549 (sense CUGCUCUGCUCAGAUGUGATT; antisense UCACAUCUGAGCAGAGCAGUU; sense: DNA at AGT, 2'-fluoro at CU, [invAb] at 5' end, 3' end, backbone not given here; antisense: sugars from the 5' end rrrfmfffmmmfmmmmfmmmm, backbone not given here) [STAT6 siNA duplex; target CUGCUCUGCUCAGAUGUGA, site 2549]
  % KD STAT6 mRNA 10 nM: 72.6 ± 4.5%
  IC50: 21.6 ± 12.4 pM
  % KD STAT6 10 nM: 72.6 ± 4.5%
  % KD STAT6: 72.6 ± 4.5%
